Source: article PMC7132963, “NTP42, a novel antagonist of the thromboxane receptor, attenuates experimentally induced pulmonary arterial hypertension” (BMC Pulmonary Medicine, 2020)

Target: T1, TPβ isoform of the human T Prostanoid receptor (thromboxane receptor, TP) (Homo sapiens, UniProt P21731)
T1 construct: gene TBXA2R; TPβ isoform, stably over-expressed in HEK 293 cells (HEK.TPβ line)
T1 sequence (P21731 1-328 limits assumed): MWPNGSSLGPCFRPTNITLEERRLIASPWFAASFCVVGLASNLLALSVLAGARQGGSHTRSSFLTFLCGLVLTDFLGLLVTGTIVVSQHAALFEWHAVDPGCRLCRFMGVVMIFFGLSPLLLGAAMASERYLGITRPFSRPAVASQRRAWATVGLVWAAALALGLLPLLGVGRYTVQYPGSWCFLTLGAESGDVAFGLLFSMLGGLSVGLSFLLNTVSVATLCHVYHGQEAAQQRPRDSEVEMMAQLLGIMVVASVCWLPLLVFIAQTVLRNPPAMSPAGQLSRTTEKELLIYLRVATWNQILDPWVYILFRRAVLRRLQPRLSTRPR
Assay: antagonism of U46619-stimulated intracellular calcium mobilization in HEK.TPβ cells (also vs 8-iso-PGF2α, IC50 […])
Format: cell-based

IC50: 8.86 ± 3.07 nM
Structure (SMILES): CC(C)(C)NC(=O)NS(=O)(=O)c1cc(C#N)ccc1Oc1cccc(-c2ccc(OC(F)F)cc2)c1 [NTP42]
